Assay results from PubChem BioAssay AID330 (DTP/NCI, 2004).
Values joined by “and” are separate entries in the source; they are usually repeats but may differ in a detail not shown here. Equal entries are not always repeated. Inconclusive results and toxic doses are left out.

Tested on: P388 leukemia ip, CD2F1 mice, survival T/C
Test: NCI In Vivo Anticancer Drug Screen. Data for tumor model P388 Leukemia (intraperitoneal) in CD2F1 (CDF1) mice
Details: endpoint: median survival time, higher = longer survival
In short: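 Mice carrying the transplanted tumor received test compound or vehicle. Survival was recorded in each group, and the value is the treated-group measurement divided by that of the vehicle-treated control group.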

[1] = dose: 60.0 mg/kg/injection, schedule: Q01DX005 (ip), vehicle: saline with Tween-80
[2] = dose: 120.0 mg/kg/injection, schedule: Q01DX005 (ip), vehicle: saline with Tween-80
[3] = dose: 50.0 mg/kg/injection, schedule: Q01DX009 (ip), vehicle: saline with Tween-80
[4] = dose: 100.0 mg/kg/injection, schedule: Q01DX009 (ip), vehicle: saline with Tween-80
[5] = dose: 200.0 mg/kg/injection, schedule: Q01DX009 (ip), vehicle: saline with Tween-80
[6] = dose: 50.0 mg/kg/injection, schedule: Q01DX005 (ip), vehicle: saline with Tween-80
[7] = dose: 100.0 mg/kg/injection, schedule: Q01DX005 (ip), vehicle: saline with Tween-80
[8] = dose: 200.0 mg/kg/injection, schedule: Q01DX005 (ip), vehicle: saline with Tween-80

CCOC(=O)C1=NN2C(O)C3(C)CC(C(=O)OCC)=NN3C(O)C2(C)C1 (stereo not given)
T/C (dose: 50.0 mg/kg/injection, schedule: Q01DX009 (ip), vehicle: saline): 105 % of control | T/C (dose: 100.0 mg/kg/injection, schedule: Q01DX009 (ip), vehicle: saline): 107 % of control | T/C (dose: 200.0 mg/kg/injection, schedule: Q01DX009 (ip), vehicle: saline): 99 % of control

CCOC(=O)C1=C(C(=O)c2ccc(OC)cc2)C(c2ccc(OC)c(OC)c2)C(C(=O)c2ccc(OC)cc2)=C(C(=O)OCC)N1
T/C [1]: 90 % of control | T/C [2]: 91 % of control

OCC(CO)(CO)NCCCNC(CO)(CO)CO
T/C (dose: 60.0 mg/kg/injection, schedule: Q01DX005 (ip), vehicle: saline): 98 % of control | T/C (dose: 120.0 mg/kg/injection, schedule: Q01DX005 (ip), vehicle: saline): 101 % of control | T/C (dose: 240.0 mg/kg/injection, schedule: Q01DX005 (ip), vehicle: saline): 97 % of control

[N-]=[N+]=Nc1nnc(-c2ccccc2)c(=O)[nH]1
T/C (dose: 100.0 mg/kg/injection, schedule: Q04DX002 (ip), vehicle: saline): 101 % of control | T/C (dose: 200.0 mg/kg/injection, schedule: Q04DX002 (ip), vehicle: saline): 101 % of control | T/C (dose: 400.0 mg/kg/injection, schedule: Q04DX002 (ip), vehicle: saline): 96 % of control

Brc1ccccc1C(Nc1nncs1)Nc1nncs1
T/C [1]: 117 % of control and 123 % of control | T/C (dose: 240.0 mg/kg/injection, schedule: Q01DX005 (ip), vehicle: saline with Tween-80): 154 % of control and 156 % of control | T/C (dose: 480.0 mg/kg/injection, schedule: Q01DX005 (ip), vehicle: saline with Tween-80): 169 % of control

CC(C)(C)c1cc(C(=S)SCc2ccccc2)cc(C(C)(C)C)c1O
T/C [3]: 93 % of control | T/C [4]: 105 % of control | T/C [5]: 105 % of control

CC(=O)NSCC(NC(=O)OC(C)(C)C)C(=O)O (stereo not given)
T/C [6]: 97 % of control | T/C [7]: 102 % of control | T/C [8]: 95 % of control

C=CC12CC(=O)N3CCc4ccccc4C3(C1)C2
T/C (dose: 100.0 mg/kg/injection, schedule: Q04DX002 (ip), vehicle: Klucel (hydroxypropylcellulose) (HPC)): 110 % of control | T/C (dose: 200.0 mg/kg/injection, schedule: Q04DX002 (ip), vehicle: Klucel (hydroxypropylcellulose) (HPC)): 100 % of control | T/C (dose: 400.0 mg/kg/injection, schedule: Q04DX002 (ip), vehicle: Klucel (hydroxypropylcellulose) (HPC)): 97 % of control

C/C(=N\NC(=S)Nc1ccc(S(=O)(=O)O)cc1)c1ccccn1
T/C (dose: 50.0 mg/kg/injection, schedule: Q01DX005 (ip), vehicle: Klucel (hydroxypropylcellulose) (HPC)): 107 % of control | T/C (dose: 50.0 mg/kg/injection, schedule: Q01DX005 (ip), vehicle: suspension in saline): 101 % of control | T/C (dose: 100.0 mg/kg/injection, schedule: Q01DX005 (ip), vehicle: Klucel (hydroxypropylcellulose) (HPC)): 108 % of control | T/C (dose: 100.0 mg/kg/injection, schedule: Q01DX005 (ip), vehicle: suspension in saline): 105 % of control | T/C (dose: 200.0 mg/kg/injection, schedule: Q01DX005 (ip), vehicle: Klucel (hydroxypropylcellulose) (HPC)): 106 % of control | T/C (dose: 200.0 mg/kg/injection, schedule: Q01DX005 (ip), vehicle: suspension in saline): 121 % of control | T/C (dose: 400.0 mg/kg/injection, schedule: Q01DX005 (ip), vehicle: Klucel (hydroxypropylcellulose) (HPC)): 115 % of control

COC(=O)c1nc(N)nc(C(=O)OC)c1C(=O)/C=C/c1ccccc1
T/C [1]: 100 % of control | T/C [2]: 98 % of control

c1ccc(CN2COc3c4c(c5ccccc5c3C2)CN(Cc2ccccc2)CO4)cc1
T/C [6]: 90 % of control | T/C [7]: 103 % of control | T/C [8]: 93 % of control

COC(=O)/C=C1/Nc2c(N)nc(N)nc2NC1=O
T/C (dose: 100.0 mg/kg/injection, schedule: Q04DX003 (ip), vehicle: saline): 108 % of control | T/C (dose: 200.0 mg/kg/injection, schedule: Q04DX003 (ip), vehicle: saline): 94 % of control | T/C (dose: 400.0 mg/kg/injection, schedule: Q04DX003 (ip), vehicle: saline): 95 % of control

Nc1nc(S)cc(=O)[nH]1
T/C [3]: 91 % of control | T/C [4]: 108 % of control | T/C [5]: 94 % of control | T/C (dose: 400.0 mg/kg/injection, schedule: Q01DX009 (ip), vehicle: saline with Tween-80): 99 % of control

CCOc1ccc(C(C#N)N(C)C)cc1OCC (stereo not given)
T/C (dose: 12.5 mg/kg/injection, schedule: Q01DX009 (ip), vehicle: saline with Tween-80): 105 % of control | T/C (dose: 25.0 mg/kg/injection, schedule: Q01DX009 (ip), vehicle: saline with Tween-80): 100 % of control | T/C [3]: 86 % of control and 92 % of control
